The target of the assay is T1, RXFP1 (Homo sapiens, UniProt Q9HBX9).
T1 construct: OVCAR5 cells expressing endogenous RXFP1; endogenous in cells; host or cells: OVCAR5 cells
T1 sequence (Q9HBX9 1-757): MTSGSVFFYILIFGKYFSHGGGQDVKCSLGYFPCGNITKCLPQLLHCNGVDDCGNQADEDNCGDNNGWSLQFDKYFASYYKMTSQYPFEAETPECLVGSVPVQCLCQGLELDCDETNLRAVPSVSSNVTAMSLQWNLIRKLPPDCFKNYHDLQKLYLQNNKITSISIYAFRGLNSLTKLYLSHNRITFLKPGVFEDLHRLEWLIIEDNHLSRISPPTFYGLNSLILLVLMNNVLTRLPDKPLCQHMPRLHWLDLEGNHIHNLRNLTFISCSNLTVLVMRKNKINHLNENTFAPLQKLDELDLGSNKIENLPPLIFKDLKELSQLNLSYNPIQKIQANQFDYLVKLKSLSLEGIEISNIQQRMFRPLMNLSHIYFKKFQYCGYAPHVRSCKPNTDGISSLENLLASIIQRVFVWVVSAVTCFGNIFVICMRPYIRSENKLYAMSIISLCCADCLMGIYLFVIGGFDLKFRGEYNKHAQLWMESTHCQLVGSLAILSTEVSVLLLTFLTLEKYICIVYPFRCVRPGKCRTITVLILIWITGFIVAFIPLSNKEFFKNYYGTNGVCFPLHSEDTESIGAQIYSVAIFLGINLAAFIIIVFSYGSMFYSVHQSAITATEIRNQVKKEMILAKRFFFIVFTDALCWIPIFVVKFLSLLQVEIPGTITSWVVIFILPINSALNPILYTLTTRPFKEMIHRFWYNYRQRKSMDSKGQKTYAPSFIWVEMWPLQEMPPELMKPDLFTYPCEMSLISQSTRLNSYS
Kind of assay: OVCAR5 cAMP assay (HTRF), RXFP1 agonist activity. Format: cell-based. The conditions noted are these: OVCAR-5; maximal cAMP relative to H2-relaxin maximum (100%); read-out: EMax, OVCAR 5 cells (cAMP). In a few lines:
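cAMP accumulation readout: after 1 mM IBMX for 40 min, endogenous-RXFP1 OVCAR5 cells got rising peptide concentrations without FCS, 30 min, 37° C, then lysis with HTRF cAMP reagents. Nonlinear regression gave EC50; Emax expressed relative to H2-relaxin maximum, same occasion.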

Molecules are shown by their SMILES. *1 amine or outer side, *2 acyl side, *3 side chain or, on linkers, in order; H or OH if unused. Where a SMILES comes first, the peptide text is derived from it. Side-chain parts run from the residue outwards. [ ]: non-standard residue; d: D form. The star is where a group is joined. PEG8 = NCCOCCOCCOCCOCCOCCOCCOCCOCCC(=O)O; γGlu = O=C(O)[C@H](CCC(=O)[*:2])N[*:1]; 1Nal = N[C@@H](Cc1cccc2ccccc12)C(=O)O; Stearoyl = CCCCCCCCCCCCCCCCCC(=O)*; Palmitoyl = CCCCCCCCCCCCCCCC(=O)*; Nle = CCCC[C@H](N)C(=O)O; AEEA = NCCOCCOCC(=O)O; Aib = CC(C)(N)C(=O)O

As to `CCCCCCCCCCCCCCCC(=O)N[C@@H](CCC(=O)N[C@@H](CCC(=O)N[C@@H](CCC(=O)NCCCC[C@H](NC(=O)CCOCCOCCOCCOCCOCCOCCOCCOCCNC(=O)[C@H](CCCCNC(C)=O)NC(=O)[C@H](CCCCN)NC(=O)[C@H](CCCNC(=N)N)NC(=O)C(C)(C)NC(=O)[C@H](CO)NC(=O)[C@H](Cc1c[nH]c2ccccc12)NC(=O)[C@@H](NC(=O)[C@H](CO)NC(=O)[C@H](CCCC)NC(=O)CNC(=O)[C@H](CCC(=O)O)NC(=O)C(C)(C)NC(=O)C(C)(C)NC(=O)[C@@H](NC(=O)[C@H](CCCCNC(C)=O)NC(=O)[C@H](C)NC(=O)[C@H](CCCNC(=N)N)NC(=O)[C@@H](NC(=O)[C@H](CCCCN)NC(=O)[C@H](CCC(=O)O)NC(=O)[C@H](CCCNC(=N)N)NC(=O)CNC(=O)[C@H](CCC(=O)O)NC(=O)[C@H](CC(C)C)NC(C)=O)C(C)C)[C@@H](C)CC)[C@@H](C)O)C(N)=O)C(=O)O)C(=O)O)C(=O)O` [compound 181] (Ac-LEGREKVRAK(Ac)I[Aib][Aib]EG[Nle]STWS[Aib]RKK(Ac)[PEG8]K([γGlu-γGlu-γGlu-Palmitoyl])-NH2), the Emax (as a rule, the maximal effect, on the per cent scale that the assay sets) amounted to 79%.
As to `CCCCCCCCCCCCCCCCCC(=O)N[C@@H](CCC(=O)N[C@@H](CCC(=O)N[C@@H](CCC(=O)NCCOCCOCC(=O)NCCOCCOCC(=O)NCCOCCOCC(=O)NCCCC[C@H](NC(=O)[C@H](CC(C)C)NC(=O)[C@H](CCCCN)NC(=O)[C@H](CCCNC(=N)N)NC(=O)C(C)(C)NC(=O)[C@H](CO)NC(=O)[C@H](Cc1cccc2ccccc12)NC(=O)[C@@H](NC(=O)[C@H](CO)NC(=O)[C@H](CCCC)NC(=O)CNC(=O)[C@H](CCC(=O)O)NC(=O)C(C)(C)NC(=O)C(C)(C)NC(=O)[C@@H](NC(=O)[C@H](CCCCNC(C)=O)NC(=O)[C@H](C)NC(=O)[C@H](CCCNC(=N)N)NC(=O)[C@@H](NC(=O)[C@H](CCCCN)NC(=O)[C@H](CCC(=O)O)NC(=O)[C@H](CCCNC(=N)N)NC(=O)CNC(=O)[C@H](CCC(=O)O)NC(=O)[C@H](CC(C)C)NC(C)=O)C(C)C)[C@@H](C)CC)[C@@H](C)O)C(N)=O)C(=O)O)C(=O)O)C(=O)O` [compound 87] (Ac-LEGREKVRAK(Ac)I[Aib][Aib]EG[Nle]ST[1Nal]S[Aib]RKLK([AEEA-AEEA-AEEA-γGlu-γGlu-γGlu-Stearoyl])-NH2), the Emax was determined as 71%.
Regarding `CCCCCCCCCCCCCCCCCC(=O)N[C@@H](CCC(=O)N[C@@H](CCC(=O)N[C@@H](CCC(=O)NCCOCCOCC(=O)NCCOCCOCC(=O)NCCOCCOCC(=O)NCCCC[C@H](NC(=O)[C@H](CCCCN)NC(=O)[C@H](CCCNC(=N)N)NC(=O)C(C)(C)NC(=O)[C@H](CO)NC(=O)[C@H](Cc1c[nH]c2ccccc12)NC(=O)[C@@H](NC(=O)[C@H](CO)NC(=O)[C@H](CCCC)NC(=O)CNC(=O)[C@H](CCC(=O)O)NC(=O)C(C)(C)NC(=O)C(C)(C)NC(=O)[C@@H](NC(=O)[C@H](CCCCNC(C)=O)NC(=O)[C@H](C)NC(=O)[C@H](CCCNC(=N)N)NC(=O)[C@@H](NC(=O)[C@H](CCCCN)NC(=O)[C@H](CCC(=O)O)NC(=O)[C@H](CCCNC(=N)N)NC(=O)CNC(=O)[C@H](CCC(=O)O)NC(=O)[C@H](CC(C)C)NC(C)=O)C(C)C)[C@@H](C)CC)[C@@H](C)O)C(N)=O)C(=O)O)C(=O)O)C(=O)O` [compound 83] (Ac-LEGREKVRAK(Ac)I[Aib][Aib]EG[Nle]STWS[Aib]RKK([AEEA-AEEA-AEEA-γGlu-γGlu-γGlu-Stearoyl])-NH2), the Emax was found to be 92%.
